{
  "source": "patent US11116757B2",
  "about": "(priority 2015, dated 2021)",
  "data": [
    {"molecular_target": "DCN1-UBC12 interaction (Homo sapiens (Human), UniProt Q96GG9)", "sequence (Q96GG9 60-248 limits assumed)": "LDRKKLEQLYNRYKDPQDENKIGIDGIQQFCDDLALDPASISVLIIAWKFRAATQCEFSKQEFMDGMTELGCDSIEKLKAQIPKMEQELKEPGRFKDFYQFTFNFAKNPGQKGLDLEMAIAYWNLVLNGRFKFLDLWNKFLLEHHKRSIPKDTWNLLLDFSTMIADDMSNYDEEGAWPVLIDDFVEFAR", "test": "biochemical", "format": "binding", "settings": "TR-FRET IC50", "units": {"IC50": "µM"}, "values": [
      {"molecule": "CCCC(C)N1CCC(N(Cc2ccccc2)C(=O)Nc2ccc(F)c(C(F)(F)F)c2)CC1", "note": "(centres unmarked) [A57]", "IC50": 0.315},
      {"molecule": "CCCC(C)N1CCC(N(Cc2ccccc2)C(=O)Nc2cccc(C(C)C)c2)CC1", "note": "(centres unmarked) [A33]", "IC50": 0.2}
    ]},
    {"molecular_target": "DCN1-UBC12 interaction (Homo sapiens (Human), UniProt Q96GG9)", "test": "biochemical", "format": "binding", "settings": "Table 4, commercial compounds; read-out: TR-FRET IC50", "units": {"IC50": "µM"}, "values": [
      {"molecule": "COc1cc(C(=O)N2CCC(C(=O)Nc3ccc(Br)cc3)CC2)cc(OC)c1OC", "note": "[C24]", "IC50": "> 67.6"},
      {"molecule": "COc1ccc(C(=O)N2CCC(C(=O)Nc3cccc([N+](=O)[O-])c3)CC2)c2ccccc12", "note": "[C60]", "IC50": "> 67.6"},
      {"molecule": "CC(=O)N1CCC(C(=O)Nc2cccc(C)c2C)CC1", "note": "[C41]", "IC50": "> 67.6"},
      {"molecule": "O=C(Nc1ccc(Cl)cc1Cl)C1CCN(C(=O)c2ccc(F)cc2)CC1", "note": "[C15]", "IC50": "> 67.6"},
      {"molecule": "COc1ccc(C(=O)NC2CCN(C(=O)c3ccc(OC)cc3)CC2)cc1", "note": "[C71]", "IC50": "> 92.2"},
      {"molecule": "COc1cccc(NC(=O)C2CCN(C(=O)c3ccc(OC)c4ccccc34)CC2)c1", "note": "[C59]", "IC50": "> 67.6"},
      {"molecule": "CC1CN(C(=O)N2CCC(C(=O)Nc3cccc(Cl)c3)CC2)c2ccccc2O1", "note": "(centres unmarked) [C51]", "IC50": "> 67.6"},
      {"molecule": "CSc1cccc(NC(=O)C2CCN(C(=O)c3cnn(-c4ccccc4)c3-n3cccc3)CC2)c1", "note": "[C9]", "IC50": "> 76.7"},
      {"molecule": "CCc1cccc(NC(=O)C2CCN(C(C)=O)CC2)c1", "note": "[C32]", "IC50": "> 67.6"},
      {"molecule": "COc1ccc(C(=O)N2CCC(C(=O)Nc3cc(OC)ccc3OC)CC2)cc1", "note": "[C11]", "IC50": "> 48.7"},
      {"molecule": "CSc1cccc(NC(=O)C2CCN(C(=O)c3ccc(F)cc3)CC2)c1", "note": "[C4]", "IC50": 26.3},
      {"molecule": "COc1ccc(C(=O)N2CCC(C(=O)Nc3cccc(F)c3)CC2)c2ccccc12", "note": "[C58]", "IC50": "> 67.6"}
    ]},
    {"molecular_target": "DCN1-UBC12 interaction (Homo sapiens (Human), UniProt Q96GG9)", "test": "biochemical", "format": "binding", "settings": "Table 6, commercial compounds; read-out: TR-FRET IC50", "units": {"IC50": "µM"}, "values": [
      {"molecule": "CCCN1CCN(C(=O)c2cnn(-c3ncc(C)c(-c4cccs4)n3)c2COC)CC1", "note": "[E11]", "IC50": 26},
      {"molecule": "CCOc1ccccc1N1CCN(C(=O)c2cnn(-c3nccc(-c4ccco4)n3)c2C)CC1", "note": "[E10]", "IC50": 25},
      {"molecule": "CCN(CC)CCN(CC)C(=O)c1cnn(-c2ncc(C)c(-c3cccs3)n2)c1COC", "note": "[E16]", "IC50": 33.3},
      {"molecule": "COCc1c(C(=O)N2CCN(C(C)C)CC2)cnn1-c1ncc(C)c(-c2cccs2)n1", "note": "[E21]", "IC50": 49.2},
      {"molecule": "CCN(CC)CCN(CC)C(=O)c1cnn(-c2nccc(-c3cccs3)n2)c1COC", "note": "[E22]", "IC50": 54.9},
      {"molecule": "Cc1c(C(=O)N(C)CC(C)C)cnn1-c1nccc(-c2cccs2)n1", "note": "[E6]", "IC50": 18.8}
    ]},
    {"molecular_target": "DCN1-UBC12 interaction (Homo sapiens (Human), UniProt Q96GG9)", "test": "biochemical", "format": "binding", "settings": "Table 7, commercial compounds; read-out: TR-FRET IC50", "units": {"IC50": "µM"}, "values": [
      {"molecule": "CCOc1ccc(C2c3c(C)nn(C)c3NC(=O)C2NC(=O)c2ccc(Cl)cc2)cc1OC", "note": "(centres unmarked) [F25]", "IC50": "> 67.6"},
      {"molecule": "Cc1nn(C)c2c1C(c1ccc(Br)cc1)C(NC(=O)c1ccc(Cl)cc1)C(=O)N2", "note": "(centres unmarked) [F12]", "IC50": "> 67.6"}
    ]},
    {"molecular_target": "DCN1-UBC12 interaction (Homo sapiens (Human), UniProt Q96GG9)", "test": "biochemical", "format": "binding", "settings": "read-out: TR-FRET IC50", "units": {"IC50": "µM"}, "values": [
      {"molecule": "CCCN1CCC(N(Cc2ccco2)C(=O)Nc2cccc(C(F)(F)F)c2)CC1", "note": "[A77, 1-(Furan-2-Ylmethyl)-1-(1-Propylpiperidin-4-yl)-3-(3-(Trifluoromethyl)Phenyl)Urea]", "IC50": 0.798},
      {"molecule": "CCCC(C)N1CCC(N(Cc2ccccc2)C(=O)Nc2cccc(N(C)C)c2)CC1", "note": "(centres unmarked) [A112]", "IC50": 2.3},
      {"molecule": "Cc1ccc(C(=O)N2CCC(c3nc4ccccc4s3)CC2)cc1C", "note": "[D17]", "IC50": "> 53.9"},
      {"molecule": "C=CC(=O)NCc1ccccc1CN(C(=O)Nc1cccc(C(F)(F)F)c1)C1CCN(C(C)CCC)CC1", "note": "(centres unmarked) [drawing 846]", "IC50": "< 0.01"},
      {"molecule": "COc1cccc(CN2CCC(N(Cc3ccccc3)C(=O)Nc3cc(F)cc(C(F)(F)F)c3)CC2)c1", "note": "[A231]", "IC50": "> 28.9"},
      {"molecule": "O=C(c1ccccc1O)N1CCC(c2nc3ccccc3s2)CC1", "note": "[D29]", "IC50": "> 67.6"},
      {"molecule": "CCCC(C)N1CCC(N(Cc2ccccc2)C(=O)Nc2ccc(Oc3ccccc3)c(C(F)(F)F)c2)CC1", "note": "(centres unmarked) [A75]", "IC50": 0.731},
      {"molecule": "CCC(CC)N1CCC(N(Cc2ccccc2)C(=O)Nc2cc(F)cc(C(F)(F)F)c2)CC1", "note": "[A120]", "IC50": 0.616},
      {"molecule": "CC(C1CCCC1)N1CCC(N(Cc2ccccc2)C(=O)Nc2cc(F)cc(C(F)(F)F)c2)CC1", "note": "(centres unmarked) [A279]", "IC50": "> 7.78"},
      {"molecule": "O=C(c1ccc(Br)cc1)N1CCCC(c2nc3ccccc3s2)C1", "note": "(centres unmarked) [D27]", "IC50": "> 67.6"},
      {"molecule": "COc1cc(C(=O)N2CCC(c3nc4ccccc4s3)CC2)cc(OC)c1Br", "note": "[D1]", "IC50": 2.31},
      {"molecule": "O=C(NC1CCN(Cc2ccccc2)CC1)NC1CCC2(CC1)OCCO2", "note": "[B26]", "IC50": "> 165"},
      {"molecule": "CCn1cnc(NC(=O)NC2CCN(Cc3ccccc3)CC2)n1", "note": "[B47]", "IC50": "> 67"},
      {"molecule": "O=C(Nc1cccnc1Cl)NC1CCN(C(=O)c2ccccc2F)CC1", "note": "[B30]", "IC50": "> 53.3"},
      {"molecule": "O=C(Nc1cccc(C(F)(F)F)c1)N(Cc1ccccc1)C1CCNCC1", "note": "[A261, 1-Benzyl-1-(Piperidin-4-yl)-3-(3-(Trifluoromethyl)Phenyl)Urea]", "IC50": "> 63.3"},
      {"molecule": "CCCC(C)N1CCC(N(Cc2ccccc2)C(=O)Nc2ccc(Cl)c(Cl)c2)CC1", "note": "(centres unmarked) [A46]", "IC50": 0.257},
      {"molecule": "COc1ccc(CN(C(=O)Nc2ccccc2C(F)(F)F)C2CCN(C(C)=O)CC2)cc1", "note": "[B85]", "IC50": "> 67.6"},
      {"molecule": "O=C(Nc1cc(F)cc(C(F)(F)F)c1)N(Cc1ccccc1)C1CCN(Cc2ccccc2OCc2ccccc2)CC1", "note": "[A214]", "IC50": "> 22.9"},
      {"molecule": "O=C(Nc1cc(F)cc(C(F)(F)F)c1)N(Cc1ccccc1)C1CCN(Cc2ccc(N3CCCC3)cc2)CC1", "note": "[A201]", "IC50": "> 19.1"},
      {"molecule": "CCCC(C)N1CCC(N(Cc2ccccc2)C(=O)Nc2ccc(O)cc2)CC1", "note": "(centres unmarked) [A308]", "IC50": "> 98.6"},
      {"molecule": "O=C(Nc1cc(F)cc(C(F)(F)F)c1)N(Cc1ccccc1)C1CCN(Cc2cc[nH]n2)CC1", "note": "[A213]", "IC50": "> 22.5"},
      {"molecule": "CCCC(C)N1CCC(N(Cc2ccccc2)C(=O)Nc2ccc(F)cc2Br)CC1", "note": "(centres unmarked) [A302]", "IC50": "> 86.9"},
      {"molecule": "CCCC(C)N1CCC(N(Cc2ccccc2)C(=O)Nc2cccc(OC)c2OC)CC1", "note": "(centres unmarked) [A250]", "IC50": "> 59.8"},
      {"molecule": "CCCC(C)N1CCC(N(Cc2ccccc2)C(=O)Nc2c(OC)cccc2OC)CC1", "note": "(centres unmarked) [A299]", "IC50": "> 85.7"},
      {"molecule": "CCCC(C)N1CCC(N(Cc2ccccc2)C(=O)Nc2cc(C)cc(Cl)c2)CC1", "note": "(centres unmarked) [A99]", "IC50": 1.41},
      {"molecule": "CSc1cccc(NC(=O)NC2CCN(Cc3ccccc3)CC2)c1", "note": "[B44]", "IC50": "> 64.5"},
      {"molecule": "O=C(Nc1ccc(C(=O)N2CCOCC2)cc1)Nc1cccc(C(F)(F)F)c1", "note": "[B46]", "IC50": "> 66.3"},
      {"molecule": "CC(=O)N1CCC(N(Cc2ccco2)C(=O)Nc2ccccc2Br)CC1", "note": "[B71]", "IC50": "> 67.6"},
      {"molecule": "CCCC(C)N1CCC(N(Cc2ccccc2)C(=O)Nc2ccc(C)nc2Br)CC1", "note": "(centres unmarked) [A240]", "IC50": "> 51.7"},
      {"molecule": "1-Benzyl-1-(1-Hexylpiperidin-4-yl)-3-(3-(Trifluoromethyl)Phenyl)Urea [A289]", "IC50": "> 73.2"},
      {"molecule": "CN(C)c1ncncc1NC(=O)NC1CCN(Cc2ccc(F)cc2)CC1", "note": "[B109]", "IC50": "> 72.8"},
      {"molecule": "CCCC(C)N1CCC(N(Cc2ccccc2)C(=O)Nc2ccc3cn[nH]c3c2)CC1", "note": "(centres unmarked) [A108]", "IC50": 2.11},
      {"molecule": "CCCC(C)N1CCC(N(Cc2ccccc2)C(=O)Nc2cccc(Cc3ccccc3)c2)CC1", "note": "(centres unmarked) [A23]", "IC50": 0.14},
      {"molecule": "C=CS(=O)(=O)Nc1cccc(CN(C(=O)Nc2cccc(C(F)(F)F)c2)C2CCN(C(C)CCC)CC2)c1", "note": "(centres unmarked) [drawing 844]", "IC50": 0.165},
      {"molecule": "COc1ccc(NC(=O)N(Cc2ccco2)C2CCN(C(C)=O)CC2)cc1", "note": "[B70]", "IC50": "> 67.6"},
      {"molecule": "CCCC(C)N1CCC(N(Cc2ccccc2)C(=O)Nc2cccc(F)c2F)CC1", "note": "(centres unmarked) [A162]", "IC50": 8.22},
      {"molecule": "O=C(Nc1ccc2c(c1)OC(F)(F)O2)NC1CCN(C(=O)c2ccccc2)CC1", "note": "[B114]", "IC50": "> 74.1"},
      {"molecule": "CCCC(C)N1CCC(N(Cc2ccccc2)C(=O)Nc2c(F)cc(F)cc2F)CC1", "note": "(centres unmarked) [A272]", "IC50": "> 67.5"},
      {"molecule": "CCCCN(C(=O)Nc1cc(F)cc(C(F)(F)F)c1)C1CCN(C(C)CCC)CC1", "note": "(centres unmarked) [A84]", "IC50": 0.917},
      {"molecule": "O=C(Nc1cc(F)cc(C(F)(F)F)c1)N(Cc1ccccc1)C1CCN(Cc2cccc(Oc3ccccc3)c2)CC1", "note": "[A217]", "IC50": "> 23.9"},
      {"molecule": "CCCC(C)N1CCC(N(Cc2ccccc2)C(=O)Nc2ccc(C(=O)OC)cc2Cl)CC1", "note": "(centres unmarked) [A189]", "IC50": 37.8},
      {"molecule": "CCCC(C)N1CCC(N(Cc2ccccc2)C(=O)Nc2cccc(C(C)(C)C)c2)CC1", "note": "(centres unmarked) [A140]", "IC50": 4.2},
      {"molecule": "Cc1ccc2[nH]c(C3CCN(Cc4cccc(C(F)(F)F)c4)CC3)nc2c1", "note": "[B19]", "IC50": "< 0.004"}
    ]}
  ]
}
